{
  "source": "paper PMC11206525",
  "about": "“Structural Design, Anticancer Evaluation, and Molecular Docking of Newly Synthesized Ni(II) Complexes with ONS-Donor Dithiocarbazate Ligands” (Molecules, 2024)",
  "key": {"[1]": {"test_system": "human breast cancer cell line MCF-7", "assay": "MTT cytotoxicity assay, breast cancer MCF-7 cells", "format": "cell-based", "conditions": "MCF-7, MTT", "procedure": "(§1) The measurement was performed using the MTT assay in cultures treated with increasing concentrations.\n(§2) The effect of the compounds applied to breast cancer MCF-7 cells and breast epithelial MCF-10A cells was evaluated by measuring 3-(4,5-dimethylthiazol-2-yl)-2,5-diphenyl tetrazolium bromide (MTT) (Invitrogen, Waltham, MA, USA). All compounds were diluted in dimethylsulfoxide (DMSO) with a final DMSO concentration of 0.01% (0.01 mL/100 mL × 100 = 0.01% means 0.01 mL of DMSO to 99.99 mL of water) in all groups and untreated controls. Cells were seeded in 96-well plates at a density of 5 × 10^3 cells per well and incubated with compounds diluted in serial concentrations ranging from 0.29 µM to 150 µM. After 24, 48, and 72 h at 37 °C and 5% CO2, 10 µL of MTT (5 mg/mL) was added to each well and incubated for 4 h at 37 °C. The supernatant was then removed, and 100 µL/well of DMSO was added to dissolve any deposited formazan. The optical density was measured at 570 nm using a microplate reader (DR-200B-NM_Kasuaki, Tokyo, Japan)."}, "[2]": {"test_system": "non-malignant breast epithelial cell line MCF-10A", "assay": "MTT cytotoxicity assay, non-malignant MCF-10A cells", "format": "cell-based, human", "procedure": "as §1, §2"}, "the cells tested": {"test_system": "the cells tested", "set-up": "method as in doi:10.1016/j.ica.2017.03.027", "conditions": "related work; cited from earlier work"}, "[3]": {"conditions": "read-out: IC50 (Inhibitory Concentration 50%) ± SD at 24 h, 24 h"}, "[4]": {"conditions": "read-out: IC50 (Inhibitory Concentration 50%) ± SD at 48 h, 48 h"}},
  "note": "Read-outs that look alike come from different tables or passages of the source.",
  "data": [
    {"smiles": "C=CCSC1=NN=C(C)c2ccccc2[O][Ni]([P](c2ccccc2)(c2ccccc2)c2ccccc2)[S]1", "note": "[(1), [Ni(L^1)PPh3]]", "values": [
      {"measurement": "IC50", "setting": "[1]; [3]", "result": "12.82 ± 0.029", "unit": "µM"},
      {"measurement": "IC50", "setting": "[1]; [4]", "result": "22.71 ± 0.016", "unit": "µM"},
      {"measurement": "IC50", "setting": "[1]; read-out: IC50 (Inhibitory Concentration 50%) ± SD at 72 h, 72 h", "result": "18.07 ± 0.017", "unit": "µM"},
      {"measurement": "IC50", "setting": "[2]; [3]", "result": "25.47 ± 0.031", "unit": "µM"},
      {"measurement": "IC50", "setting": "[2]; [4]", "result": "28.43 ± 0.021", "unit": "µM"}
    ]},
    {"smiles": "C=CCSC(=S)N/N=C(\\C)c1ccccc1O", "note": "[H2L^1, S-Allyl-2-(2-hydroxyphenyl-ethylidene)dithiocarbazato]", "values": [
      {"measurement": "IC50", "setting": "[1]; Homo sapiens, MCF7, read-out: IC50 (Inhibitory Concentration 50%) ± SD at 24 h, 24 h", "result": "88.85 ± 0.097", "unit": "µM"},
      {"measurement": "IC50", "setting": "[1]; Homo sapiens, MCF7, read-out: IC50 (Inhibitory Concentration 50%) ± SD at 48 h, 48 h", "result": "87.73 ± 0.042", "unit": "µM"},
      {"measurement": "IC50", "setting": "[1]; Homo sapiens, MCF7, read-out: IC50 (Inhibitory Concentration 50%) ± SD at 72 h, 72 h", "result": "28.49 ± 0.023", "unit": "µM"},
      {"measurement": "IC50", "setting": "[2]; Homo sapiens, read-out: IC50 (Inhibitory Concentration 50%) ± SD at 24 h, 24 h", "result": "65.44 ± 0.034", "unit": "µM"},
      {"measurement": "IC50", "setting": "[2]; Homo sapiens, read-out: IC50 (Inhibitory Concentration 50%) ± SD at 48 h, 48 h", "result": "62.86 ± 0.013", "unit": "µM"},
      {"measurement": "IC50", "setting": "[2]; Homo sapiens, read-out: IC50 (Inhibitory Concentration 50%) ± SD at 72 h, 72 h", "result": "62.86 ± 0.025", "unit": "µM"},
      {"measurement": "melting point", "result": 116, "unit": "°C"}
    ]},
    {"smiles": "C/C(=N\\NC(=S)SCc1ccccc1)c1ccccc1O", "note": "[H2L^2, S-Benzyl-2-(2-hydroxyphenyl-ethylidene)dithiocarbazato]", "values": [
      {"measurement": "melting point", "result": 145, "unit": "°C"}
    ]},
    {"smiles": "O.O.O.O.O.O.[Cl][Ni][Cl]", "note": "[NiCl2⋅6H2O]", "values": [
      {"measurement": "effect on cell proliferation or cell viability", "setting": "the cells tested", "result": "no substantial effect"}
    ]}
  ]
}
